Experimental data from patent US20060194856A1, “Use of atii antagonist for the treatment or prevention of metabolic syndrome” (ASTRAZENECA AB, priority 2003, published 2006).
Several values for one entry are separate records, joined by “and”; a condition that tells them apart may be missing. Equal entries are not always repeated.

Tests used:
[1] = Clinical study: fasting serum insulin and plasma glucose; type: in vivo, patients; conditions: for P-glucose, At 12 months / S-insulin, At 12 months / S-insulin/P-glucose, At 12 months: at 12 months of treatment; for P-glucose, At 12 months / S-insulin, At 12 months / P-glucose, Baseline / S-insulin, Baseline: fasting; for P-glucose, At 12 months / S-insulin, At 12 months / S-insulin/P-glucose, At 12 months / P-glucose, Baseline / S-insulin, Baseline / S-insulin/P-glucose, Baseline / P-glucose, Mean change at 12 months / S-insulin, Mean change at 12 months / S-insulin/P-glucose, Mean change at 12 months: mean (SD); for P-glucose, Baseline / S-insulin, Baseline / S-insulin/P-glucose, Baseline: baseline (before randomised treatment); for P-glucose, Mean change at 12 months / S-insulin, Mean change at 12 months / S-insulin/P-glucose, Mean change at 12 months: change from baseline to 12 months; for Fasting levels of both serum insulin and plasma glucose during treatment: result in words, 12 months treatment
Description: The fasting plasma glucose level is defined as the concentration of glucose in the plasma of a subject after an overnight's fast. Patients were instructed not to eat breakfast on the morning of the follow-up visits.
(§1) A clinical study was performed. It was a study with a double-blind, randomised, controlled, parallel group design.
(§2) After four weeks of single-blind treatment with placebo, the patients were randomised to double-blind treatment with either candesartan cilexetil 16 mg or hydrochlorothiazide 25 mg and followed for one year. If sitting systolic or diastolic blood pressure was above target pressure (<130/<85 mmHg, for patients below 65 years, or <140/<90 mmHg, if 65 years or older) [1999 World Health Organization (WHO)—International Society of Hypertension Guidelines for the Management of Hypertension. Journal of Hypertension 1999; 17; 151-83] at any visit during the treatment period, double-blind treatment with felodipine extended-release 2.5-5.0 mg was added to the candesartan group and atenolol 50-100 mg was added to the hydrochlorothiazide group. No further antihypertensive treatment was allowed. Two patients were withdrawn from the study, both in the candesartan cilexetil group, since their blood pressure exceeded the pre-specified safety level (≧180 and/or ≧105 mm Hg, mean of two recordings at different visits).
Analyses of plasma glucose were carried out at the Department of Clinical Chemistry, Umeå University Hospital. Plasma glucose was routinely analysed by Vitros 950 glucose oxidase method (Ortho Clinical Diagnostics).
(§3) Efficacy variables were analysed using analysis of covariance (ANCOVA) with treatment and health centre as factors and baseline value as covariate. Difference in treatment effect was estimated with 95% confidence interval. To test difference between treatments in change of biochemistry variables the Wilcoxon Rank Sum test was used. […] In this approach all randomised patients who had completed the study and had taken at least one dose of study drug were included.

[2] = Clinical study: metabolic syndrome diagnosed according to WHO criteria; type: in vivo, patients; conditions: n = 196 per group
Description: as §1, §2
The metabolic syndrome was diagnosed according to the following criteria [World Health Organization (WHO). Department of Noncommunicable Disease Surveillance. Geneva: WHO 1999 pp 1-59]: • 1. Fasting plasma glucose above 6.1 mmol/L • 2. Blood pressure above 140/90 mm Hg • 3. One or more of the following: • a. plasma triglycerides above 1.7 mmol/L and/or HDL below 0.9 mmol/L (men), below 1.0 mmol/L (women) • b. Body mass index above 30 kg/m^2 Statistical Analyses

[3] = Double-blind randomised clinical study: sitting blood pressure and heart rate; type: in vivo, patients; conditions: for patients who attained a blood pressure <140/<90 mm Hg: after one year; for SBP, mean change / DBP, mean change / Heart rate, mean change: sitting, mean (SD)
Description: as §1
For inclusion, sitting blood pressure should be in the range of 140-179 and/or 90-104 mm Hg (mean of two measurements according to standardised procedures [1999 World Health Organization (WHO)—International Society of Hypertension Guidelines for the Management of Hypertension. Journal of Hypertension 1999; 17; 151-83] and at two visits) on placebo treatment and after the patients had been subjected to non-pharmacological treatment, as recommended [The Swedish Council on Technology Assessment in Health Care (SBU). Moderately elevated blood pressure. J Intern Med 1995; 238(Suppl 737): S1-S128; 1999 World Health Organization (WHO)—International Society of Hypertension Guidelines for the Management of Hypertension. Journal of Hypertension 1999; 17; 151-83] for one month or longer. Since the non-pharmacological intervention had been introduced before the start of the study and then maintained, its effect on metabolic variables during the study was minimal.
as §2, §3

[4] = Clinical study: plasma triglycerides; type: in vivo; conditions: individual patients of the candesartan cilexetil group with metabolic syndrome at baseline but not after 12 months
Description: as §1
After four weeks of single-blind treatment with placebo, the patients were randomised to double-blind treatment with either candesartan cilexetil 16 mg or hydrochlorothiazide 25 mg and followed for one year. If sitting systolic or diastolic blood pressure was above target pressure (<130/<85 mmHg, for patients below 65 years, or <140/<90 mmHg, if 65 years or older) [1999 World Health Organization (WHO)—International Society of Hypertension Guidelines for the Management of Hypertension. […]
Total plasma cholesterol, LDL-cholesterol, HDL-cholesterol and triglycerides were determined in all patients at randomisation (n=392), and in most patients after six months (n=354), and after 12 months (n=352). Total plasma cholesterol and triglycerides concentrations were determined enzymatically. HDL-cholesterol was measured after the precipitation of apolipoprotein B-containing lipoproteins in whole plasma by heparin-manganese chloride [Lipid Research Clinics Program: Manual of Laboratory Operations, Bethesda, Md.: National Institutes of Health, Vol 1. […] Their LDL cholesterol levels were not calculated.

[5] = at 6 months, hypertensive patients, candesartan cilexetil 16 mg (+ felodipine if needed) or HCTZ 25 mg (+ atenolol if needed)

Row | Structure (SMILES) | P-glucose, At 12 months [1] | S-insulin, At 12 months [1] | S-insulin/P-glucose, At 12 months [1] | P-glucose, Baseline [1] | S-insulin, Baseline [1] | S-insulin/P-glucose, Baseline [1] | P-glucose, Mean change at 12 months [1] | S-insulin, Mean change at 12 months [1] | S-insulin/P-glucose, Mean change at 12 months [1] | Fasting levels of both serum insulin and plasma glucose during treatment [1] | patients suffering from the metabolic syndrome as defined by WHO ([2]; at base-line) | patients who attained a blood pressure <140/<90 mm Hg [3] | SBP, mean change [3, 5] | DBP, mean change ([3]; at 6 months, same regimens) | Heart rate, mean change ([3]; at 6 months, same regimens) | DBP, mean change ([3]; at 12 months, same regimens) | Heart rate, mean change ([3]; at 12 months, same regimens) | SBP, mean change ([3]; at 12 months, same regimens) | also measured
1 | CCOc1nc2cccc(C(=O)OC(C)OC(=O)OC3CCCCC3)c2n1Cc1ccc(-c2ccccc2-c2nn[nH]n2)cc1 (centres unmarked) [Candesartan cilexetil, candesartan cilexetil] | 5.10 (0.57) mmol/L | 8.96 (5.42) mlU/L | 1.76 (1.06) | 5.17 (0.58) mmol/L | 9.25 (7.90) mlU/L | 1.77 (1.38) | −0.06 (0.46) mmol/L | −0.30 (6.50) mlU/L | −0.00 (1.23) | unaffected | 13 patients | 65% | −20.9 (13.1) mm Hg | −12.8 (6.9) mm Hg | −2.1 (8.4) bpm | −13.0 (7.4) mm Hg | −2.2 (8.4) bpm | −21.0 (15.2) mm Hg | Fasting glucose, 12 months ([1]; individual patients 1-8 of the candesartan cilexetil group with metabolic syndrome at baseline but not after 12 months, after 12 months): 5.5 mmol/L and 5.7 mmol/L (2×) and 5.6 mmol/L and 5.2 mmol/L and 6.0 mmol/L and 5.9 mmol/L; Fasting glucose, Baseline ([1]; individual patients 1-8 of the candesartan cilexetil group with metabolic syndrome at baseline but not after 12 months, baseline): 6.1 mmol/L and 6.5 mmol/L and 6.2 mmol/L (4×) and 6.4 mmol/L; Triglycerides, 12 months ([4]; after 12 months): 1.59 mmol/L and 1.44 mmol/L and 1.28 mmol/L; Triglycerides, Baseline ([4]; baseline): 2.15 mmol/L and 2.34 mmol/L and 2.65 mmol/L
2 | NS(=O)(=O)c1cc2c(cc1Cl)NCNS2(=O)=O [HCTZ, hydrochlorothiazide] | 5.42 (0.89) mmol/L | 11.00 (6.88) mlU/L | 2.03 (1.23) | 5.29 (0.98) mmol/L | 9.65 (6.09) mlU/L | 1.83 (1.10) | 0.13 (0.69) mmol/L | 1.35 (6.09) mlU/L | 0.20 (1.13) | increased | 12 patients | 62% | −23.9 (13.0) mm Hg | −13.9 (7.1) mm Hg | −6.8 (10.1) bpm | −12.9 (7.7) mm Hg | −7.3 (9.4) bpm | −22.8 (14.9) mm Hg | patients suffering from the metabolic syndrome as defined by WHO ([2]; at 12 months, p=0.007 between groups): 18 patients
